From the NIST ThermoML archive (doi:10.1007/s10765-007-0169-z)
Numbers after ± are expanded uncertainties.

Assays:
[1] = for surface tension liquid-gas: Drop volume; for mass density: 101.33 kPa, Liquid, Pycnometric method
[2] = xn = mol fraction of the nth substance listed; conditions: Drop volume

SMILES: CC(C)CCl [1-chloro-2-methylpropane]
- surface tension liquid-gas ([1]; 298.15 K): 21.8 ± 0.28 mN/m
- mass density ([1]; 298.15 K): 871.13 ± 0.87 kg/m3
- surface tension liquid-gas ([1]; 313.15 K): 19.18 ± 0.25 mN/m

SMILES: CC(C)CCl [1-chloro-2-methylpropane] + C1CCOC1
- surface tension liquid-gas ([2]; 298.15 K, x2 = 0.0652): 22.25 ± 0.28 mN/m
- surface tension liquid-gas ([2]; 298.15 K, x2 = 0.1201): 22.54 ± 0.28 mN/m
- surface tension liquid-gas ([2]; 298.15 K, x2 = 0.2392): 23.06 ± 0.28 mN/m
- surface tension liquid-gas ([2]; 298.15 K, x2 = 0.3613): 23.53 ± 0.29 mN/m
- surface tension liquid-gas ([2]; 298.15 K, x2 = 0.4622): 23.94 ± 0.29 mN/m
- surface tension liquid-gas ([2]; 298.15 K, x2 = 0.5682): 24.44 ± 0.29 mN/m
- surface tension liquid-gas ([2]; 298.15 K, x2 = 0.6614): 24.9 ± 0.29 mN/m
- surface tension liquid-gas ([2]; 298.15 K, x2 = 0.7586): 25.42 ± 0.3 mN/m
- surface tension liquid-gas ([2]; 298.15 K, x2 = 0.8408): 25.89 ± 0.3 mN/m
- surface tension liquid-gas ([2]; 298.15 K, x2 = 0.9257): 26.45 ± 0.31 mN/m
- surface tension liquid-gas ([2]; 298.15 K, x2 = 0.9662): 26.75 ± 0.31 mN/m
- surface tension liquid-gas ([2]; 313.15 K, x2 = 0.0619): 19.77 ± 0.25 mN/m
- surface tension liquid-gas ([2]; 313.15 K, x2 = 0.1268): 20.25 ± 0.26 mN/m
- surface tension liquid-gas ([2]; 313.15 K, x2 = 0.2531): 21 ± 0.26 mN/m
- surface tension liquid-gas ([2]; 313.15 K, x2 = 0.359): 21.53 ± 0.27 mN/m
- surface tension liquid-gas ([2]; 313.15 K, x2 = 0.4722): 22.06 ± 0.27 mN/m
- surface tension liquid-gas ([2]; 313.15 K, x2 = 0.5669): 22.51 ± 0.27 mN/m
- surface tension liquid-gas ([2]; 313.15 K, x2 = 0.659): 22.97 ± 0.28 mN/m
- surface tension liquid-gas ([2]; 313.15 K, x2 = 0.7539): 23.45 ± 0.28 mN/m
- surface tension liquid-gas ([2]; 313.15 K, x2 = 0.8338): 23.88 ± 0.28 mN/m
- surface tension liquid-gas ([2]; 313.15 K, x2 = 0.9198): 24.42 ± 0.29 mN/m
- surface tension liquid-gas ([2]; 313.15 K, x2 = 0.9751): 24.83 ± 0.29 mN/m

SMILES: CC(C)CCl [1-chloro-2-methylpropane] + C1CCOCC1
- surface tension liquid-gas ([2]; 298.15 K, x2 = 0.0483): 22.18 ± 0.28 mN/m
- surface tension liquid-gas ([2]; 298.15 K, x2 = 0.1067): 22.55 ± 0.28 mN/m
- surface tension liquid-gas ([2]; 298.15 K, x2 = 0.2075): 23.09 ± 0.29 mN/m
- surface tension liquid-gas ([2]; 298.15 K, x2 = 0.32): 23.63 ± 0.29 mN/m
- surface tension liquid-gas ([2]; 298.15 K, x2 = 0.4148): 24.07 ± 0.3 mN/m
- surface tension liquid-gas ([2]; 298.15 K, x2 = 0.519): 24.58 ± 0.3 mN/m
- surface tension liquid-gas ([2]; 298.15 K, x2 = 0.6219): 25.11 ± 0.31 mN/m
- surface tension liquid-gas ([2]; 298.15 K, x2 = 0.7194): 25.65 ± 0.32 mN/m
- surface tension liquid-gas ([2]; 298.15 K, x2 = 0.8079): 26.15 ± 0.32 mN/m
- surface tension liquid-gas ([2]; 298.15 K, x2 = 0.9077): 26.72 ± 0.33 mN/m
- surface tension liquid-gas ([2]; 298.15 K, x2 = 0.9602): 27.04 ± 0.33 mN/m
- surface tension liquid-gas ([2]; 313.15 K, x2 = 0.0377): 19.55 ± 0.25 mN/m
- surface tension liquid-gas ([2]; 313.15 K, x2 = 0.1032): 20.11 ± 0.26 mN/m
- surface tension liquid-gas ([2]; 313.15 K, x2 = 0.2167): 20.92 ± 0.27 mN/m
- surface tension liquid-gas ([2]; 313.15 K, x2 = 0.3226): 21.57 ± 0.27 mN/m
- surface tension liquid-gas ([2]; 313.15 K, x2 = 0.4213): 22.13 ± 0.28 mN/m
- surface tension liquid-gas ([2]; 313.15 K, x2 = 0.5302): 22.74 ± 0.29 mN/m
- surface tension liquid-gas ([2]; 313.15 K, x2 = 0.6241): 23.27 ± 0.29 mN/m
- surface tension liquid-gas ([2]; 313.15 K, x2 = 0.7134): 23.78 ± 0.3 mN/m
- surface tension liquid-gas ([2]; 313.15 K, x2 = 0.8148): 24.37 ± 0.3 mN/m
- surface tension liquid-gas ([2]; 313.15 K, x2 = 0.9051): 24.89 ± 0.31 mN/m
- surface tension liquid-gas ([2]; 313.15 K, x2 = 0.966): 25.22 ± 0.31 mN/m

SMILES: CCCCCl [1-chlorobutane]
- surface tension liquid-gas ([1]; 298.15 K): 23.29 ± 0.29 mN/m
- mass density ([1]; 298.15 K): 880.69 ± 0.88 kg/m3
- surface tension liquid-gas ([1]; 313.15 K): 21.58 ± 0.27 mN/m

SMILES: CCCCCl [1-chlorobutane] + C1CCOC1
- surface tension liquid-gas ([2]; 298.15 K, x2 = 0.0526): 23.45 ± 0.29 mN/m
- surface tension liquid-gas ([2]; 298.15 K, x2 = 0.1121): 23.62 ± 0.29 mN/m
- surface tension liquid-gas ([2]; 298.15 K, x2 = 0.2436): 23.98 ± 0.29 mN/m
- surface tension liquid-gas ([2]; 298.15 K, x2 = 0.3549): 24.29 ± 0.29 mN/m
- surface tension liquid-gas ([2]; 298.15 K, x2 = 0.4671): 24.65 ± 0.3 mN/m
- surface tension liquid-gas ([2]; 298.15 K, x2 = 0.5624): 25 ± 0.3 mN/m
- surface tension liquid-gas ([2]; 298.15 K, x2 = 0.6678): 25.41 ± 0.3 mN/m
- surface tension liquid-gas ([2]; 298.15 K, x2 = 0.7575): 25.79 ± 0.3 mN/m
- surface tension liquid-gas ([2]; 298.15 K, x2 = 0.84): 26.16 ± 0.31 mN/m
- surface tension liquid-gas ([2]; 298.15 K, x2 = 0.9224): 26.58 ± 0.31 mN/m
- surface tension liquid-gas ([2]; 298.15 K, x2 = 0.9739): 26.87 ± 0.31 mN/m
- surface tension liquid-gas ([2]; 313.15 K, x2 = 0.0654): 21.78 ± 0.27 mN/m
- surface tension liquid-gas ([2]; 313.15 K, x2 = 0.1272): 21.95 ± 0.27 mN/m
- surface tension liquid-gas ([2]; 313.15 K, x2 = 0.25): 22.28 ± 0.27 mN/m
- surface tension liquid-gas ([2]; 313.15 K, x2 = 0.3654): 22.59 ± 0.28 mN/m
- surface tension liquid-gas ([2]; 313.15 K, x2 = 0.4658): 22.89 ± 0.28 mN/m
- surface tension liquid-gas ([2]; 313.15 K, x2 = 0.5586): 23.2 ± 0.28 mN/m
- surface tension liquid-gas ([2]; 313.15 K, x2 = 0.6569): 23.56 ± 0.28 mN/m
- surface tension liquid-gas ([2]; 313.15 K, x2 = 0.7489): 23.92 ± 0.28 mN/m
- surface tension liquid-gas ([2]; 313.15 K, x2 = 0.8401): 24.3 ± 0.29 mN/m
- surface tension liquid-gas ([2]; 313.15 K, x2 = 0.9272): 24.69 ± 0.29 mN/m
- surface tension liquid-gas ([2]; 313.15 K, x2 = 0.9663): 24.88 ± 0.29 mN/m

SMILES: CCCCCl [1-chlorobutane] + C1CCOCC1
- surface tension liquid-gas ([2]; 298.15 K, x2 = 0.0421): 23.43 ± 0.29 mN/m
- surface tension liquid-gas ([2]; 298.15 K, x2 = 0.1082): 23.65 ± 0.29 mN/m
- surface tension liquid-gas ([2]; 298.15 K, x2 = 0.2121): 24.02 ± 0.3 mN/m
- surface tension liquid-gas ([2]; 298.15 K, x2 = 0.3174): 24.41 ± 0.3 mN/m
- surface tension liquid-gas ([2]; 298.15 K, x2 = 0.4245): 24.82 ± 0.31 mN/m
- surface tension liquid-gas ([2]; 298.15 K, x2 = 0.5222): 25.21 ± 0.31 mN/m
- surface tension liquid-gas ([2]; 298.15 K, x2 = 0.6243): 25.63 ± 0.32 mN/m
- surface tension liquid-gas ([2]; 298.15 K, x2 = 0.7209): 26.04 ± 0.32 mN/m
- surface tension liquid-gas ([2]; 298.15 K, x2 = 0.8105): 26.43 ± 0.33 mN/m
- surface tension liquid-gas ([2]; 298.15 K, x2 = 0.9103): 26.88 ± 0.33 mN/m
- surface tension liquid-gas ([2]; 298.15 K, x2 = 0.9655): 27.13 ± 0.33 mN/m
- surface tension liquid-gas ([2]; 313.15 K, x2 = 0.0319): 21.69 ± 0.27 mN/m
- surface tension liquid-gas ([2]; 313.15 K, x2 = 0.1092): 21.95 ± 0.28 mN/m
- surface tension liquid-gas ([2]; 313.15 K, x2 = 0.208): 22.29 ± 0.28 mN/m
- surface tension liquid-gas ([2]; 313.15 K, x2 = 0.3137): 22.66 ± 0.28 mN/m
- surface tension liquid-gas ([2]; 313.15 K, x2 = 0.4209): 23.04 ± 0.29 mN/m
- surface tension liquid-gas ([2]; 313.15 K, x2 = 0.5149): 23.39 ± 0.29 mN/m
- surface tension liquid-gas ([2]; 313.15 K, x2 = 0.6199): 23.8 ± 0.3 mN/m
- surface tension liquid-gas ([2]; 313.15 K, x2 = 0.717): 24.19 ± 0.3 mN/m
- surface tension liquid-gas ([2]; 313.15 K, x2 = 0.8126): 24.59 ± 0.31 mN/m
- surface tension liquid-gas ([2]; 313.15 K, x2 = 0.9067): 24.99 ± 0.31 mN/m
- surface tension liquid-gas ([2]; 313.15 K, x2 = 0.965): 25.24 ± 0.31 mN/m

SMILES: CC(C)(C)Cl [2-chloro-2-methylpropane]
- surface tension liquid-gas ([1]; 298.15 K): 18.9 ± 0.24 mN/m
- mass density ([1]; 298.15 K): 836.45 ± 0.83 kg/m3
- surface tension liquid-gas ([1]; 313.15 K): 16.98 ± 0.22 mN/m
